# Laboratory results taken from patent publication US9738731B2, “Lactic acid bacterium growth enhancer, regulatory T-cell number increasing agent, method of enhancing growth of lactic acid bacterium, method of increasing number of regulatory T-cells, method of evaluating regulatory T-cell number increasing effect, and method of evaluating lactic acid growth …” (TOKYO UNIVERSITY OF SCIENCE FOUNDATION, priority 2013, dated 2017).
# Test system: total cLP cells from WT mice
# Assay: Co-culture of total cLP cells with Lactobacillus strains, gene expression
# Format: cell-based, mouse
# Conditions: 1×10^5 cLP cells with 1×10^6 CFU, 12 h
# Description: FIG. 7C: 1×10^5 total cLP cells from WT mice were co-cultured with 1×10^6 CFU (/well) L. murinus, L. animalis, L. salivarius, L. johnsonii or L. reuteri for 12 h. Cytokine gene expression was determined by real-time RT-PCR. Data in (FIGS. 7A-C) are representative of two independent experiments.
# Total RNA was extracted with Mammalian Total RNA Miniprep kit (Sigma-Aldrich, St. Louis, U.S.) according to the manufacturer's instructions. RNA was denatured in the presence of an oligo dT primer and then reverse transcribed with the High Capacity cDNA Reverse Transcription Kit (Applied Biosystems, San Francisco, U.S.). Quantitative real-time RT-PCRs were performed with a SYBR Green qPCR kit (Carlsbad, U.S.) and an iCycler system (Bio-Rad, Hercules, U.S.) with the sets of primers described in Table 1, and the expression of each mRNA encoding cytokine was normalized with gapdh expression level.
substance,measurement,value
Lactobacillus reuteri,"expression of these genes (Tgfb, Il10, Foxp3, Rorc)",did not modify
